Patent publication US11401243B2, “Quinoline derived small molecule inhibitors of nicotinamide N-methyltransferase (NNMT) and uses thereof” (priority 2017, dated 2022)
Entries after “also recorded” stand apart in the source; their conditions may differ. Where two headings read alike, the source gives them in different places. Each block holds one molecule with its values, some of them ahead of it.

Columns and labels:
[1] = Parallel artificial membrane permeability assay (PAMPA); assay type: in vitro ADME; details: for Papp at 4 h, 400 μM: 400 μM in PBS, room temperature, read-out: Flux; for Permeability Classification (passive transport): BCS classification
Protocol: Samples were tested in triplicates in three separate experiments.

[2] = biological target: T1, human NNMT (mt-hNNMT) (Homo sapiens, UniProt P40261, E101A/E103A/K100A); details: values from applicant's published SAR study; read-out: IC50 (NNMT inhibition); cited from earlier work
T1 sequence (P40261 1-261 K100A/E101A/E103A limits assumed): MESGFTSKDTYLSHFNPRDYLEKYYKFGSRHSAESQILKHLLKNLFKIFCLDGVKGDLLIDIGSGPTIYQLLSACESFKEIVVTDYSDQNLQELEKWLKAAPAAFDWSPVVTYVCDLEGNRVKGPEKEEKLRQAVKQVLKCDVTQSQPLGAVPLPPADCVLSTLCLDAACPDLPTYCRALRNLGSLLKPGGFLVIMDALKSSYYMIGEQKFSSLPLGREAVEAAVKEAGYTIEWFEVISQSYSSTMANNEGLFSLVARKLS

[3] = test system: NNMT activity in 3T3-L1 pre-adipocytes and differentiated adipocytes; experiment: Quantitative measurement of NNMT reaction product 1-MNA in cultured cells (LC/MS/MS); assay type: cell-based; details: 10 μM, 24 h
Protocol: Differentiation of 3T3-L1 pre-adipocytes. […] Briefly, standard culture media was supplemented with scheduled addition of adipogenic agents [3-isobutyl-1methyl xanthine (IBMX), Sigma Aldrich; MO, USA), dexamethasone (Sigma Aldrich; MO, USA), insulin (Gibco Life Technologies Inc.; Grand Island, N.Y., USA)] over 10 days to promote differentiation of 3T3-L1 fibroblasts into adipocytes; a combination of 1 mM IBMX, 1 μM dexamethasone, and 10 μg/ml of insulin in media were added to fully confluent 3T3-L1 fibroblasts for three days (days 0-3) to initiate differentiation. At day 3, the media was replaced with culture media supplemented with insulin (10 μg/ml). After day 6, cells were maintained in culture media until described experiments were begun (days 8-10).
Cellular 1-MNA concentrations were determined using an ultra-sensitive high-resolution AB Sciex 6500 Q-trap mass spectrometer coupled to an Agilent 1260 ultra-high pressure liquid chromatography (LC/MS/MS) system. Using multiple reaction monitoring (MRM) positive ion mode, the 1-MNA NNMT reaction product was quantified from peak area ratios using AB Sciex Analyst and MultiQuant 2.1 software and the parent precursor and Q3 masses set to m/z 137.1 and 94.1, respectively. Fragment ions at m/z of 92.1 and 77.9 were additionally used for the detection and confirmation of 1-MNA, respectively. […]. To determine the effect of NNMT inhibitor on NNMT activity in the pre-adipocytes and differentiated adipocytes (8×10^4 cells/well seeded prior to beginning differentiation), cells were treated with 30 μM inhibitor for 24 h. Similarly, to compare the relative effects of multiple NNMT inhibitors on NNMT activity in cultured adipocytes, differentiated adipocytes in 6-well plates were treated with 10 μM test compound for 24 h. Following treatment, media was replaced with 80% (v/v) methanol (cooled to −80° C.) containing 500 nmol 6-chloronicotinamide (6-CN) as an internal standard (IS) to extract cellular metabolites. Adherent cells were scrapped, then centrifuged at 4° C. and 13000 g for 15 min, and the resulting supernatants processed using established protocols. […]. Data were subsequently normalized to the IS peak area and transformed as % control values for cross-sample comparisons. […] Choice of inhibitor concentrations and time period was chosen based on the results from the MTT studies.

[4] = biological target: recombinant human PRMT3 enzyme (Homo sapiens, UniProt O60678); experiment: PRMT3 activity assay (radiometric); assay type: biochemical; details: 10 nM to 200 μM (1,8-diMQ) or 600 μM (5-amino-1MQ)
Sequence of recombinant human PRMT3 enzyme (O60678 whole entry): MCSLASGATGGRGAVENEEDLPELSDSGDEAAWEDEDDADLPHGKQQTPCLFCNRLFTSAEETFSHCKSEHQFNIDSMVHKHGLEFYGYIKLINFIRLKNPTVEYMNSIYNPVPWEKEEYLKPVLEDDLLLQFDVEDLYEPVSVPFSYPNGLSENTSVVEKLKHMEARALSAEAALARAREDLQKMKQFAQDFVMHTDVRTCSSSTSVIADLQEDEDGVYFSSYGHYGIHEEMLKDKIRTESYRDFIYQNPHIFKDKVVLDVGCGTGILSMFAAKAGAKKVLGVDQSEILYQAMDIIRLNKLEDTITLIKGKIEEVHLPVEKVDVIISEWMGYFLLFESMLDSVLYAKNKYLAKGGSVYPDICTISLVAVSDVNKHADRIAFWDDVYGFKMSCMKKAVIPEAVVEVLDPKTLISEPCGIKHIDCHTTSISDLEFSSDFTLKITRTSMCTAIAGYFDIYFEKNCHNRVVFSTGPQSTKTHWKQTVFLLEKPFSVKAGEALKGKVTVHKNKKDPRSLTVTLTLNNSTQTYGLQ
From the text: Test compounds were screened in biochemical assays for activity against three structurally similar methyltransferases, including catechol-O-methyltransferase (COMT), DNA (cytosine-5)-methyltransferase 1 (DNMT1), and protein arginine methyltransferase 3 (PRMT3). Additional biochemical assays were used to test the ability of compounds to inhibit nicotinamide phosphoribosyl transferase (NAMPT) and NAD+-dependent protein deacetylase sirtuin 1 (SIRT1), two enzymes in the NAD+ biosynthesis/salvage pathway. All assays were performed by Reaction Biology Corporation (RBC; Malvern, Pa., USA) and complete assay details are noted below. For each test compound, IC50 values were calculated from dose-response curves established with 10 concentrations of a half-log dilution series. For each assay, established enzyme specific inhibitors were included as positive controls for enzyme function and assay reproducibility. IC50 values were determined by non-linear least-squares fitting of a 4-parameter dose-response curve to collected data points (Graphpad Prism 7.0; La Jolla, Calif., USA).
PRMT3 activity assay. […] The analogues, 1,8-diMQ and 5-amino-1MQ were tested at concentrations from 200 μM-10 nM and 600 μM-10 nM, respectively. Reactions were performed with 5 μM histone H3 (histone L-arginine) substrate, 1 μM radiolabeled S-adenosyl-L-[methyl-3H]methionine (SAM) co-substrate, and recombinant human PRMT3 enzyme. Activity was monitored via quantification of radiolabeled reaction product histone [methyl-3H]-L-arginine.

[5] = biological target: T1, human NNMT (mt-hNNMT); experiment: NNMT activity assay (HPLC-UV detection of MNA), NNMT IC50 curves; details: NNMT Inhibition IC50, mean ± SD of duplicate or triplicate measurements; NI = no observable inhibition
[6] = biological target: recombinant human DNMT1 enzyme (Homo sapiens, UniProt P26358); experiment: DNMT1 activity assay (radiometric); assay type: biochemical
Sequence of recombinant human DNMT1 enzyme (P26358 whole entry): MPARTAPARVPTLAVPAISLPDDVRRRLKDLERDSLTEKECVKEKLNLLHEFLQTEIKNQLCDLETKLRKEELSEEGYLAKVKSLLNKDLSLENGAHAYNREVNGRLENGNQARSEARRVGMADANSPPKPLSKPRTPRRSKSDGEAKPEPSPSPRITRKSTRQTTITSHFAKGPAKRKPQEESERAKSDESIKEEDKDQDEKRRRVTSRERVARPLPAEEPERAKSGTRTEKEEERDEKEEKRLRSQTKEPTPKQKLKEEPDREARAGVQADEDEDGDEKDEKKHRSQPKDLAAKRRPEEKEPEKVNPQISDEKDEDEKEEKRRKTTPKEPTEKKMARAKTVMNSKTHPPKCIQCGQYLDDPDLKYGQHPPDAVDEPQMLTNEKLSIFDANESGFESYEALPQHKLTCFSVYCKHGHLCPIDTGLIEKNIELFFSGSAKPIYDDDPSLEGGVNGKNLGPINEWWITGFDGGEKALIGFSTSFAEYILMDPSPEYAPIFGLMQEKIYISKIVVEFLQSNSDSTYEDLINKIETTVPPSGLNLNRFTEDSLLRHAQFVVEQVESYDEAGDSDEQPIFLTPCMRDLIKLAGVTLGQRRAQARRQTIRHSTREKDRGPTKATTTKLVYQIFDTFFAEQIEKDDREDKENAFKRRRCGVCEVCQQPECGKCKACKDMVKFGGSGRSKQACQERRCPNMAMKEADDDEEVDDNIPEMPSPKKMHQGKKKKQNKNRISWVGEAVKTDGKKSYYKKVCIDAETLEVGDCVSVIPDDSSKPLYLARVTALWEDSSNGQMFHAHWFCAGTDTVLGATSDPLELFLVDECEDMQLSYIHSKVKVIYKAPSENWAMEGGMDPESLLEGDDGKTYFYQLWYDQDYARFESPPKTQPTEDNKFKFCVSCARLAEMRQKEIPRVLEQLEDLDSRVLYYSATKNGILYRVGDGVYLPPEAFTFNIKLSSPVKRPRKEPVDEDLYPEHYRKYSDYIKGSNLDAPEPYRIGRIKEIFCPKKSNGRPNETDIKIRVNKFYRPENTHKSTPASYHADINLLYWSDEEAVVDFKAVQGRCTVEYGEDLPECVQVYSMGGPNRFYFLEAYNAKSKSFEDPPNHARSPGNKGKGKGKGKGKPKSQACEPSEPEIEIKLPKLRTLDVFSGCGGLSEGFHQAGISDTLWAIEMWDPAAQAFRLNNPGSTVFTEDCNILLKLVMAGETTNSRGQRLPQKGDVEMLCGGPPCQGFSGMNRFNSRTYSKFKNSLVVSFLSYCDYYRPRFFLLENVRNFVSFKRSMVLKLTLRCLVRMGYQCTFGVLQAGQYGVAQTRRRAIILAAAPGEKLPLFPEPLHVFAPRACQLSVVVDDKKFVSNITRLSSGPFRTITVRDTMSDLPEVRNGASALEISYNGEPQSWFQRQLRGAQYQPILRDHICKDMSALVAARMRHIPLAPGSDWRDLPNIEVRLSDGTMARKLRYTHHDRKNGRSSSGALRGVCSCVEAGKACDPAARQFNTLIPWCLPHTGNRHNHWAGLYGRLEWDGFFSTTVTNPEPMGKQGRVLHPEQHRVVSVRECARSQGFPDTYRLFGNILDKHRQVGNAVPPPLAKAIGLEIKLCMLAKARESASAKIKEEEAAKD

[7] = test system: Caco-2 cells; experiment: Bi-directional permeability assay with Caco-2 cells
[8] = as above; details: human, Caco-2, pH 7.4
[9] = biological target: T2, recombinant human COMT enzyme (Homo sapiens, UniProt P21964); experiment: COMT activity assay (radiometric); assay type: biochemical; details: maximal tested concentration 200 μM
T2 construct: Reaction Biology Corporation (ran the assay)
T2 sequence (P21964 1-271): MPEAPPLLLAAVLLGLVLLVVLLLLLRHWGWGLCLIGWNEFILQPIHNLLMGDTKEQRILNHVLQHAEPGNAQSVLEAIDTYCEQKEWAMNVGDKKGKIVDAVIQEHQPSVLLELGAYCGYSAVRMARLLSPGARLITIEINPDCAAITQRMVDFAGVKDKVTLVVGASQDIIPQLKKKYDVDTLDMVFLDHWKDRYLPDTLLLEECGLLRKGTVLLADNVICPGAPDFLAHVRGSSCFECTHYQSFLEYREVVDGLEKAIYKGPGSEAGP

Papp at 4 h, 400 μM [1]: 0.698 ×10⁻⁶ cm/s
SMILES: Cc1cc(C)[n+](C)c2c(C)cccc12 [1,2,4,8-tetraMQ]
Permeability Classification (passive transport) [1]: low, but non-zero, permeability; also recorded: Low permeability
IC50 [2]: 109 µM
1-MNA levels in differentiated adipocytes relative to control [3]: did not significantly decrease

SMILES: Cc1cccc2ccc[n+](C)c12 [1q]
inhibition of PRMT3 (in words) [4]: did not inhibit
IC50 [5]: 1.8 ± 0.5 µM
Papp at 4 h, 400 μM [1]: 0.864 ×10⁻⁶ cm/s
Permeability Classification (passive transport) ([1]; listed as 1,8-diMQ): low, but non-zero, permeability; also recorded: Low permeability
inhibition of DNMT1 (in words) ([6]; 10 nM to 200 μM (1,8-diMQ) or 600 μM (5-amino-1MQ)): did not inhibit
IC50 ([6]; read-out: IC50, DNA (cytosine-5)-methyltransferase 1, NI: no inhibition): > 200 µM
Mean A→B Papp ([7]; Caco-2, 10 μM, 2 h, pH 7.4, BLQ = no peak detected in receiver side): BLQ
Classification (active transport / efflux) ([7]; Caco-2, listed as 1,8-diMQ): very low bi-directional transport; also recorded: Low permeability
Papp B→A at 2 h, 10 μM [8]: 1.78 ×10⁻⁶ cm/s
inhibition at 200 µM [9]: 20%
